Assay results reported in patent US8841269B2, “Polynucleotides for use in treating and diagnosing cancers” (Creighton University, priority 2010, dated 2014).
Entries after “also recorded” stand apart in the source; their conditions may differ.

How the values were obtained:
MCF7 cells [1] = assay: MTT cell proliferation assay in MCF7; assay type: cell-based, human; details: for cell growth (MTT) with E2: MCF7, E2 free medium with addition of 10 nmol/L E2; for cell growth (MTT): MCF7, E2 free medium with or without addition of 10 nmol/L E2 (FIG. 9B-D); for day from which significant effect on proliferation was detected / cell proliferation (MTT): MCF7, normal growth medium; for cell proliferation (MTT): 60 nmol/L
Experimental: (§1) MTT cell proliferation assay. MCF7 cells were transfected with let-7 mimics or negative controls (60 nmol/L) in normal growth medium for 1 day, or in medium with 2.5% charcoal-stripped FBS for 2 days to exhaust endogenous estrogen, following the protocol of siPORT NeoFX Transfection Agent (Applied Biosystems). For the experiment in normal growth medium, 10^4 cells in the volume of 100 μL were seeded in a 96-well plate for 12 hours and assay lasted for another 4 days. For experiments in E2 free medium, 1.5 10^4 cells were seeded in a 96-well plate for 12 hours and then exposed to 10 nmol/L E2, or not, for up to 4 days. For both experiments, each treatment had 12 replicates on the plate. The cells were then incubated in 0.83 mg/mL 3-[4,5-dimethylthiazol-2-yl]-2,5-diphenyltetrazolium bromide (MTT) in growth medium at 37° C. for 4 h and lysed in 100 μL of DMSO at room temperature for 15 min. The absorbance in each well was measured at 490 nm by an ELx800 Absorbance Microplate Reader (Biotek). Cell proliferation was normalized to day 0.

[2] = system: ER-α negative MDA-MB-231 cell line; assay: MTT cell proliferation assay in MDA-MB-231; assay type: cell-based, human; details: MDA-MB-231, DMEM with 10% FBS
Experimental: FIG. 10. The effects of let-7a, let-7b, and let-7i miRNAs on cell proliferation in ER-α negative MDA-MB-231 cell line. Cancer cell proliferation was monitored by MTT assays in the same way as in MCF7 cell line except MDA-MB-231 cells were grown in DMEM with 10% FBS.
as §1

[3] = system: 3′ UTR of human ER-α36 gene; assay: Luciferase reporter assay, ER-α36 3′ UTR let-7 binding site in pMIR-REPORT; assay type: cell-based; details: MCF7 cells; for luciferase activity, ER-α36 3′-UTR binding site: 60 nmol/L mimics
Excerpt: A fragment of the 3′ UTR of human ER-α36 gene, which harbors the putative let-7 target sites, was synthesized (IDT, Coralville, Iowa). With the SpeI and HindIII restriction sites at the ends, respectively, the sense strand is 5′-ctag[…] (SEQ ID NO:41) and the antisense strand is 5′-agct[…] (SEQ ID NO:42). The sense and antisense oligonucleotides were annealed and ligated into the SpeI/HindIII sites of the pMIR-REPORT luciferase vector (Ambion, Austin, Tex.). The sequences were verified by DNA sequencing. Transfection was performed in 24-well plate using Lipofectamine 2000 (Invitrogen). Let-7 mimics, anti-let-7 inhibitors, or negative controls were transfected with 0.25 μg luciferase construct and 0.25 μg β-galactosidase plasmid (Ambion) to check transfection efficiency. Twenty-four hours post-transfection, the luciferase activity was measured using Dual-Glo Luciferase Assay System (Promega, Fitchburg, Wis.) in Veritas Microplate Luminometer (Turner Biosystems, Sunnyvale, Calif.).

ER-α36 mRNA = assay: Real-time PCR of ER-α36 mRNA after transfection; assay type: cell-based, human; details: for ER-α36 mRNA expression: MDA-MB-231, mimics, vs negative control miRNA; for ER-α36 mRNA level: MDA-MB-231, two days post transfection
Experimental: To assess the expression levels of ER-α66 and ER-α36 with real-time PCR, total RNA was extracted using Trizol reagent (Invitrogen, Carsbad, Calif.). One microgram RNA was used for cDNA synthesis with the SuperScript III first-strand synthesis system (Invitrogen, Carsbad, Calif.). After 10 dilution, 4 μL cDNA was used in 20 μL reaction volume, which includes 4 μL of 1.5 μmol/L primers, 2 μL of 2 μmol/L probes, and 10 μL TaqMan universal PCR master mix with ampErase UNG (Applied Biosystems). The reaction condition was the same as miRNA real-time PCR. β-Actin was the internal control (Applied Biosystems, Foster City, Calif.). The primers for ER-α66 are: 5′-GCGGCCACGGACCAT (forward) (SEQ ID NO:20); 5′-[…] (SEQ ID NO:21) (reverse); 5′-FAM-[…]-TAMRA-3′ (probe) (SEQ ID NO:22). The primers for ER-α36 are: 5′-[…] (forward) (SEQ ID NO:23); 5′-[…] (reverse) (SEQ ID NO:24); 5′-[…] TAMRA-3′ (probe) (SEQ ID NO:43).
Let-7 miRNA or negative control #1 miRNA of 60 nmol/L (Ambion, Austin, Tex.) was transfected into cells with the siPORT NeoFX reagent (Ambion, Austin, Tex.) following the manufacturer's protocol.

MCF7-Tam cells = assay: MTT cell proliferation assay with tamoxifen in MCF7-Tam; assay type: cell-based, human; details: 1 μmol/L tamoxifen
Experimental: MCF7-Tam cells were transfected with let-7 mimics or negative control in normal growth medium for 1 day, or in medium with 2.5% charcoal-stripped FBS for 2 days to exhaust endogenous estrogen. Ten thousand cells in the volume of 100 μL were seeded in a 96-well plate for 12 hours and assay lasted for another 4 days. For tamoxifen treatment, 1 μmol/L tamoxifen was added to each well of 96-well plate. Each treatment had 12 replicates on the plate. Medium volume was increased to 200 μL after the assay began. The cells were then incubated in 0.83 mg/mL 3-[4,5-dimethylthiazol-2-yl]-2,5-diphenyltetrazolium bromide (MTT) in growth medium at 37° C. for 4 hours and lysed in 100 μL of dimethyl sulfoxide at room temperature for 15 minutes. The absorbance in each well was measured at […] with an ELx800 Absorbance Microplate Reader (Biotek, Winooski, Vt.). Cell growth was expressed as a fraction of absorbance at day 0.

MCF7 cells [4] = assay: Annexin-V binding assay for apoptosis in MCF7; assay type: cell-based, human
Experimental: Annexin-V binding assay for apoptosis. […] The staining followed the protocol of FITC Annexin V Apoptosis Detection Kit I (Cat #556547, BD Biosciences). Cell populations were analyzed with a BD FACSAria™ flow cytometer. Approximately 20,000 cells were counted for each sample.

[5] = E2 free medium (2.5% charcoal-stripped FBS)
[6] = complete (normal growth) medium with 10% FBS

Substance	cell growth (MTT) with E2 (MCF7 cells [1])	cell growth (MTT) (MCF7 cells [1])	day from which significant effect on proliferation was detected (MCF7 cells [1])	cell proliferation (MTT) (MCF7 cells [1])	cell growth (MTT) [2]	luciferase activity, ER-α36 binding site [3]	luciferase activity, mutated ER-α36 binding sequence [3]	luciferase activity, ER-α36 3′-UTR binding site [3]	ER-α36 mRNA expression (ER-α36 mRNA)	ER-α36 mRNA level (ER-α36 mRNA)	tamoxifen sensitivity / cell growth (MTT) with tamoxifen (MCF7-Tam cells; [5])	tamoxifen sensitivity / cell growth (MTT) with tamoxifen (MCF7-Tam cells; [6])	effect on apoptosis (MCF7 cells [4]; MCF7, after either 3 days or 6 days)	apoptotic rate (MCF7 cells [4]; MCF7, after 6 days)	apoptotic rate (MCF7 cells [4]; MCF7, three days post-transfection)
let-7i: let-7i miRNA (mimic), 3′-UUGUCGUGUUUGAUGAUGGAGU-5′ (SEQ ID NO:14) (chemistry not given here; listed 3' to 5')	consistent inhibition	strongly inhibited	3 days	significantly inhibited cell proliferation	None of three miRNAs significantly inhibited cell growth	significantly inhibited the luciferase activity	abrogated the inhibitory effects; also recorded: did not show inhibition	about 60 % of the activity in the control cells	30 % of the controls	inhibited	grew significantly slower; also recorded: significantly enhanced tamoxifen sensitivity	does not affect tamoxifen sensitivity	not significant	–	–
let-7b: let-7b miRNA (mimic), 3′-UUGGUGUGUUGGAUGAUGGAGU-5′ (SEQ ID NO:8) (chemistry not given here; listed 3' to 5')	consistent inhibition	strongly inhibited	2 days	significantly inhibited cell proliferation	None of three miRNAs significantly inhibited cell growth	significantly inhibited the luciferase activity	abrogated the inhibitory effects; also recorded: did not show inhibition	about 60 % of the activity in the control cells	30 % of the controls	inhibited	grew significantly slower; also recorded: significantly enhanced tamoxifen sensitivity	does not affect tamoxifen sensitivity	–	28.6%	7%
